The subject of the assay is tibialis anterior (TA) muscle. In words: Cardiotoxin muscle injury, TA histology (PAX7, myofiber cross-sectional area). Conditions: for effect on endogenous MuSCs in the absence of injury: no tissue damage; for increase in endogenous PAX7-expressing MuSCs / distribution of myofiber cross-sectional area: young mice; for increase in endogenous PAX7-expressing MuSCs: bolus three days after injury, fourteen days post injury; for distribution of myofiber cross-sectional area: day 14 post-cardiotoxin injury. The format is in vivo, mouse. As for the experimental part: Muscle injury: We used an injury model entailing intramuscular injection of 10 μl of notexin (10 μg ml^−1; Latoxan) or cardiotoxin (10 μM; Latoxan) into the TA muscle. For cryoinjury, an incision was made in the skin overlying the TA muscle and a copper probe, chilled in liquid nitrogen, was applied to the TA muscle for three 10 s intervals, allowing the muscle to thaw between each application of the cryoprobe. When indicated, 48 hr after injury either 16,16-Dimethyl Prostaglandin E2 (dmPGE2) (13 nmol, Tocris, catalog #4027) or vehicle control (PBS) was injected into the TA muscle. The contralateral TA was used as an internal control. We collected tissues 14 days post-injury for analysis.
Tissue histology: We collected and prepared recipient TA muscle tissues for histology as previously described^5,6. We incubated transverse sections with anti-LAMININ (Millipore, clone A5, catalog #05-206, 1:200), and anti-PAX7 (Santa Cruz Biotechnology, catalog #sc-81648, 1:50) primary antibodies and then with AlexaFluor secondary Antibodies (Jackson ImmunoResearch Laboratories, 1:200). We counterstained nuclei with DAPI (Invitrogen). We acquired images with an AxioPlan2 epifluorescent microscope (Carl Zeiss Microimaging) with Plan NeoFluar 10×/0.30 NA or 20×/0.75 NA objectives (Carl Zeiss) and an ORCA-ER digital camera (Hamamatsu Photonics) controlled by the SlideBook (3i) software. The images were cropped using Adobe Photoshop with consistent contrast adjustments across all images from the same experiment. The image composites were generated using Adobe Illustrator. We analyzed the number of PAX7 positive cells using the MetaMorph Image Analysis software (Molecular Devices), and the fiber area using the Baxter Algorithms for Myofiber Analysis that identified the fibers and segmented the fibers in the image to analyze the area of each fiber. For PAX7 quantification we examined serial sections spanning a depth of at least 2 mm of the TA. For fiber area at least 10 fields of LAMININ-stained myofiber cross-sections encompassing over 400 myofibers were captured for each mouse as above. Data analyses were blinded. The researchers performing the imaging acquisition and scoring were unaware of treatment condition given to sample groups analyzed.
We used an injury model entailing intramuscular injection of 10 μl of notexin (10 μg ml^−1; Latoxan, catalog #L8104) or cardiotoxin (10 μM; Latoxan, catalog #L8102) into the Tibialis anterior (TA) muscle. For cryoinjury, an incision was made in the skin overlying the TA muscle and a copper probe, chilled in liquid nitrogen, was applied to the TA muscle for three 10 s intervals, allowing the muscle to thaw between each application of the cryoprobe. When indicated, 48 hr after injury either 16,16-Dimethyl Prostaglandin E2 (dmPGE2) (13 nmol, Tocris, catalog #4027), Indomethacin (35 μg, Sigma, catalog #17378) or vehicle control (PBS) was injected into the TA muscle. The contralateral TA was used as an internal control, except for the force measurement experiments where each mouse had both legs injured with the same condition and independent mice were used for each condition.
We collected and prepared recipient TA muscle tissues for histology as previously described (26, 27). For mouse injury assays we incubated transverse sections with Rabbit polyclonal anti-PGE2 (abcam, Catalog #ab2318, 1:100) Rat polyclonal anti-Laminin (Clone A5) (EMD Millipore, Catalog #05-206, 1:200), Mouse monoclonal anti-Pax7 (Santa Cruz, Catalog #sc-81648, 1:50), AlexaFluor 647-conjugated wheat germ agglutinin (WGA) antibody (W32466, Thermo Fisher Scientific), Rabbit polyclonal anti-GFP (A11122, Thermo Fisher Scientific, 1:500) and Mouse monoclonal anti-Embryonic Myosin Heavy Chain (DSHB, Catalog #F1.652, 1:10) primary antibodies and then with AlexaFluor secondary Antibodies (Jackson ImmunoResearch Laboratories, 1:500). We counterstained nuclei with DAPI (Invitrogen). […]

Each structure is given as a SMILES string.

On to `CCCCC(C)(C)[C@H](O)/C=C/[C@H]1[C@H](O)CC(=O)[C@@H]1C/C=C\CCCC(=O)O` [dmPGE2, 16,16-dimethyl prostaglandin E2], for which the “effect on endogenous MuSCs in the absence of injury” value is “no effect”, the “increase in endogenous PAX7-expressing MuSCs” value amounted to 60±15% and the “distribution of myofiber cross-sectional area” value was “shifted toward larger sizes”. The myofiber sizes entry (aged mice, fourteen days post-injury) is listed as “concomitant increase in myofiber sizes”. Moreover, where the note is “aged mice, single dmPGE2 injection, fourteen days post-injury”, the “increase in the number of endogenous MuSCs” value amounted to 24±2%.
As to `CCCCC[C@H](O)/C=C/[C@H]1[C@H](O)CC(=O)[C@@H]1C/C=C\CCCC(=O)O` [PGE2, prostaglandin E2], the “effect on endogenous MuSCs in the absence of injury” value is on record as “no difference from vehicle-injected controls”, the “increase in endogenous PAX7-expressing MuSCs” value was 65±7% and the “distribution of myofiber cross-sectional area” value is given as “striking shift in the distribution of myofibers from smaller toward larger sizes”. In addition, the “muscle mass of treated TA” value (day 14 post-injury) was “did not increase”.

Source of the values: patent publication US11738031B2, “Compositions and methods for preventing or treating muscle conditions” (The Board of Trustees of the Leland Stanford Junior …, priority 2017, dated 2023).
